Entries after “also recorded” stand apart in the source; their conditions may differ.
Assays:
Assay type in all cases: in vivo
DIO mice = assay: hyperinsulinemic-euglycemic clamp in DIO mice
Protocol: FIGS. 15I-15K are a line graph and two bar graphs showing the effect of fexaramine treatment on body weight, insulin-stimulated GDR, and fasting insulin levels. Mice were fed HFD for 14 weeks, and then administered daily oral injections of vehicle or fexaramine (100 mg/kg) for 3 weeks with HFD. The mice treated with fexaramine were initially heavier (by 2-3 grams). Three weeks after treatment, a clamp study was performed on the mice. Data represent the mean±STD. Statistical analysis was performed with the Student's t test (*p<0.05, **p<0.01).

[1] = system: diet-induced obesity (DIO) mice; assay: chronic PO fexaramine in diet-induced obesity (DIO) mice; conditions: for glucose tolerance and insulin sensitivity (GTT, ITT): PO 5 weeks
Protocol: FIGS. 2A-2G are graphs illustrating the reduction of diet-induced obesity and improvement in metabolic homeostasis with fexaramine. […] Data represent the mean±STD. Statistical analysis was performed with the Student's t test (*p<0.05, **p<0.01).
The physiological effects of fexaramine in established obesity (diet-induced obesity, DIO) models were evaluated. […]

[2] = system: C57BL/6J mice with intragastric ethanol feeding; assay: alcoholic liver disease, Tsukamoto-French mouse model; conditions: ethanol feeding 3 weeks; 100 mg/kg/day oral gavage
Protocol: FIGS. 44A-44C are a (A) digital image of histology images of the liver and (B) and (C) bar graphs showing that administration of fexaramine can protect the liver from alcoholic liver disease, for example by decreasing fat in the liver, liver enzyme ALT and triglycerides (TG). C57BL/6J mice, fed an isocaloric diet or ethanol through continuous intragastric feeding for 3 weeks, were co-administered Fexaramine (100 mg/kg/day oral gavage) or vehicle. (A) Histological liver sections from ethanol fed mice after vehicle or fexaramine treatment. (B) Bar graph of serum alanine aminotransferase (ALT) levels in vehicle and fexaramine treated mice after 3 weeks of an ethanol diet (C) Liver triglyceride levels in vehicle and fexaramine treated mice after 3 weeks of an ethanol or isocaloric (control) diet.
The Tsukamoto-French mouse model, which involves continuous intragastric feeding of isocaloric diet or ethanol for 3 weeks, was used. C57BL/6J mice were co-administered vehicle or fexaramine by oral gavage (100 mg/kg/day). Mice were sacrificed after treatment and conjugated and unconjugated bile acid levels measured in serum and liver by liquid chromatography/mass spectrometry.

[3] = system: serum bile acid composition; assay: serum bile acid composition by mass spectrometry in HFD mice; conditions: 100 mg/kg/day per os 5 week
Protocol: Mice fed a HFD for 14 weeks were maintained on a HFD and treated with vehicle or fexaramine (100 mg/kg/day per os for 5 week). Serum bile acid composition was determined by mass spectrometry. N.D not determined.

ob/ob mice = assay: fexaramine and deuterated analogs in ob/ob mice, 2 weeks; conditions: 2 weeks at 50 mg/kg PO
Protocol: An in vivo study of fexaramine and selectively-deuterated fexaramine compounds (FIG. 29A) was performed. Briefly, ob/ob mice were treated daily with vehicle, Fex, or deuterated analogs (50 mg kg^−1) by oral (PO) gavage for 2 weeks. Subsequently, body weight, body temperature, fasting blood glucose and insulin levels, insulin secretion, and GLP1 section were measured, and glucose tolerance tests (GTTs) performed.

## COC(=O)/C=C/c1cccc(N(Cc2ccc(-c3ccc(N(C)C)cc3)cc2)C(=O)C2CCCCC2)c1 [Fexaramine, fexaramine]
DIO mice; versus control DIO mice
  insulin-mediated suppression of HGP: marked increase
DIO mice; weight-matched cohorts
  basal HGP, GDR, IS-GDR, FFA suppression and fasting insulin levels: No differences
[1]; DIO mice
  BAT expression of ERRγ, PGC-1α, PGC-1β and target genes: induction
  PKA activity in BAT: increased PKA activity
  accumulation of lipid vesicles in brown adipose tissue (BAT): markedly reduced
  activity (ambulatory counts): more active than control mice
  bile acid pool size: reducing
  brown fat-like signature genes and respiratory capacity of stromal vascular fraction of inguinal adipose tissue: increased
  circulating FGF15: increase
  expression of TNFα, MCP-1, IL-1α and F4/80 in visceral and brown adipose depots: reduced
  fraction of lithocholic acid in circulating bile acids: increasing
  fraction of taurocholic acid in circulating bile acids: decreasing
  levels of IKK-ε and TBK1 in adipose tissue: reduced levels
  liver lipid droplets (histology): reduction in lipid droplets
  mTORC1 pathway, S6K phosphorylation in gonadal WAT: reduced S6K phosphorylation
  phosphorylation level of p38 in BAT: increased
  ratio of unconjugated to conjugated cholic acid: remarkably increased
  respiratory exchange ratio: No changes
  serum alanine aminotransferase (ALT) levels: decreased
  serum lactate levels: significantly decreased
  glucose tolerance and insulin sensitivity (GTT, ITT): improved glucose clearance; also recorded: improved insulin sensitivity
[1]; DIO mice, 100 mg/kg PO 5 weeks
  glucose, insulin, leptin, cholesterol and resistin levels: reduced
  increase of core body temperature: approximately 1.5 °C
  overall fat mass (MRI): reduced overall fat mass
  serum inflammatory cytokines TNFα, IL-1α, IL-1β, IL-17 and MCP-1: markedly decreased
  weight gain: prevented weight gain
  wet weights of subcutaneous and visceral adipose depots: significant reductions
[1]; DIO mice, 10, 50 or 100 mg/kg PO 5 weeks
  prevention of weight gain over doses: dose-dependent manner
[1]; DIO mice, listed as Fex
  glucose tolerance and insulin sensitivity (GTT, ITT): dose-dependent improvements
  respiratory exchange ratio: similar
  serum lactate levels: significantly reduced
[1]; DIO mice, RNA-Seq
  FGF15 expression in ileum: dramatically upregulated
[1]; DIO mice, RNA-sequencing
  OXPHOS gene changes in inguinal, gonadal and brown adipose depots: selectively enhance OXPHOS activity only in BAT
[1]; DIO mice, chronic treatment
  HSL phosphorylation and serum levels of free fatty acids: pronounced increase
  cross-sectional area of adipocytes in visceral depots: markedly reduced
  expression of mucosal defense genes Occludin and Muc2: increased expression
  hepatic CYP7A1 expression (mRNA and protein): significantly repressed
  hepatic expression of CYP8B1 and CYP27A1: not affected
  hepatic expression of gluconeogenic and lipogenic genes: reduced
  hepatic triglycerides: marked decrease
  liver FXR target genes SHP and BSEP: not altered
  serum catecholamine levels and β3-adrenergic receptor expression: increased
[1]; DIO mice, highest dose
  weight gain at the highest dose: almost completely abrogated
[1]; DIO mice, immunohistochemistry
  abundance of multi-locular, UCP1-expressing adipocytes in inguinal adipose tissue: substantial increase
[1]; DIO mice, versus vehicle
  food intake: not attributable to difference in food intake
[1]; DIO mice, weight-matched
  carbon dioxide production (VCO2): exhaled more carbon dioxide
  oxygen consumption (VO2): consistently higher
[1]; mouse, in vivo, po
  intestinal toxicity (histology of ileum and colon): no signs of intestinal toxicity
[2]
  hepatic steatosis: decreasing hepatic steatosis
  serum levels of alanine aminotransferase (ALT): decreased
[3]
  Bile Acid Composition (%): CA: 7.51%
  Bile Acid Composition (%): CDCA: 2.51%
  Bile Acid Composition (%): DCA: 7.67%
  Bile Acid Composition (%): GLCA: 0.51%
  Bile Acid Composition (%): HDCA: 0.36%
  Bile Acid Composition (%): LCA: 28.13%
  Bile Acid Composition (%): T-UDCA: 3.07%
  Bile Acid Composition (%): T-beta MCA: 29.16%
  Bile Acid Composition (%): TCA: 12.23%
  Bile Acid Composition (%): TCDCA: 1.13%
  Bile Acid Composition (%): TDCA: 1.02%
  Bile Acid Composition (%): UDCA: 0.05%
  Bile Acid Composition (%): omega MCA: 6.65%
ob/ob mice
  body weight: do not affect body weight
  core body temperature: did increase core body temperature
  fasting blood glucose levels: does not significantly affect

Source: patent publication US20190084939A1, “ANALOGS OF FEXARAMINE AND METHODS OF MAKING AND USING” (Salk Institute for Biological Studies, priority 2014, published 2019)
